Results reported in the NIST ThermoML archive (doi:10.1016/j.tca.2018.11.018).
± gives the expanded uncertainty stated by the source.

Experiment: xn = mol fraction of the nth substance listed
Conditions: 100 kPa, Liquid; for viscosity: Falling or rolling sphere viscometry; for mass density: Vibrating tube method

CCCC[n+]1ccccc1.[Br-] [1-butylpyridinium bromide] + O
Conditions | mass density [kg/m3] | viscosity [mPa·s]
298.15 K, x1 = 0.03 | 1068.5 ± 1 | 1.544 ± 0.093
298.15 K, x1 = 0.06 | 1118.5 ± 1 | 2.378 ± 0.14
298.15 K, x1 = 0.09 | 1154.8 ± 1 | 3.424 ± 0.21
298.15 K, x1 = 0.13 | 1189.9 ± 1.1 | 5.218 ± 0.32
298.15 K, x1 = 0.17 | 1214.8 ± 1.1 | 8.606 ± 0.52
298.15 K, x1 = 0.211 | 1233.8 ± 1.2 | 12.22 ± 0.74
298.15 K, x1 = 0.25 | 1247.8 ± 1.2 | 16.44 ± 1
298.15 K, x1 = 0.291 | 1259.5 ± 1.3 | 24.37 ± 1.5
298.15 K, x1 = 0.332 | 1268.9 ± 1.5 | 30.3 ± 1.9
298.15 K, x1 = 0.377 | 1277.4 ± 1.7 | 42.55 ± 2.6
303.15 K, x1 = 0.03 | 1066.2 ± 1 | 1.36 ± 0.082
303.15 K, x1 = 0.06 | 1115.6 ± 1 | 2.067 ± 0.12
303.15 K, x1 = 0.09 | 1151.6 ± 1 | 2.951 ± 0.18
303.15 K, x1 = 0.13 | 1186.5 ± 1.1 | 4.45 ± 0.27
303.15 K, x1 = 0.17 | 1211.3 ± 1.1 | 7.401 ± 0.45
303.15 K, x1 = 0.211 | 1230.3 ± 1.2 | 10.37 ± 0.63
303.15 K, x1 = 0.25 | 1244.4 ± 1.2 | 13.83 ± 0.84
303.15 K, x1 = 0.291 | 1256.1 ± 1.3 | 18.59 ± 1.1
303.15 K, x1 = 0.332 | 1265.6 ± 1.5 | 24.78 ± 1.5
303.15 K, x1 = 0.377 | 1274 ± 1.7 | 34.24 ± 2.1
308.15 K, x1 = 0.03 | 1063.8 ± 1 | 1.212 ± 0.073
308.15 K, x1 = 0.06 | 1112.6 ± 1 | 1.82 ± 0.11
308.15 K, x1 = 0.09 | 1148.3 ± 1 | 2.575 ± 0.16
308.15 K, x1 = 0.13 | 1183 ± 1.1 | 3.851 ± 0.23
308.15 K, x1 = 0.17 | 1207.8 ± 1.1 | 6.345 ± 0.38
308.15 K, x1 = 0.211 | 1226.8 ± 1.2 | 8.845 ± 0.54
308.15 K, x1 = 0.25 | 1240.9 ± 1.2 | 11.68 ± 0.71
308.15 K, x1 = 0.291 | 1252.7 ± 1.3 | 15.55 ± 0.95
308.15 K, x1 = 0.332 | 1262.2 ± 1.5 | 20.41 ± 1.2
308.15 K, x1 = 0.377 | 1270.7 ± 1.7 | 27.78 ± 1.7
313.15 K, x1 = 0.03 | 1061.2 ± 1 | 1.089 ± 0.066
313.15 K, x1 = 0.06 | 1109.6 ± 1 | 1.617 ± 0.098
313.15 K, x1 = 0.09 | 1145 ± 1 | 2.268 ± 0.14
313.15 K, x1 = 0.13 | 1179.5 ± 1.1 | 3.356 ± 0.2
313.15 K, x1 = 0.17 | 1204.2 ± 1.1 | 5.426 ± 0.33
313.15 K, x1 = 0.211 | 1223.3 ± 1.1 | 7.548 ± 0.46
313.15 K, x1 = 0.25 | 1237.5 ± 1.2 | 10.01 ± 0.61
313.15 K, x1 = 0.291 | 1249.3 ± 1.3 | 13.05 ± 0.8
313.15 K, x1 = 0.332 | 1258.8 ± 1.5 | 16.97 ± 1
313.15 K, x1 = 0.377 | 1267.3 ± 1.7 | 22.77 ± 1.4
318.15 K, x1 = 0.03 | 1058.6 ± 1 | 0.985 ± 0.06
318.15 K, x1 = 0.06 | 1106.4 ± 1 | 1.447 ± 0.088
318.15 K, x1 = 0.09 | 1141.6 ± 1 | 2.014 ± 0.12
318.15 K, x1 = 0.13 | 1176 ± 1.1 | 2.954 ± 0.18
318.15 K, x1 = 0.17 | 1200.7 ± 1.1 | 4.671 ± 0.28
318.15 K, x1 = 0.211 | 1219.8 ± 1.1 | 6.488 ± 0.39
318.15 K, x1 = 0.25 | 1234 ± 1.2 | 8.493 ± 0.52
318.15 K, x1 = 0.291 | 1245.9 ± 1.3 | 11.08 ± 0.68
318.15 K, x1 = 0.332 | 1255.4 ± 1.5 | 14.29 ± 0.87
318.15 K, x1 = 0.377 | 1264 ± 1.7 | 18.95 ± 1.2
323.15 K, x1 = 0.03 | 1055.7 ± 1 | 0.897 ± 0.054
323.15 K, x1 = 0.06 | 1103.2 ± 1 | 1.306 ± 0.079
323.15 K, x1 = 0.09 | 1138.1 ± 1 | 1.805 ± 0.11
323.15 K, x1 = 0.13 | 1172.4 ± 1.1 | 2.617 ± 0.16
323.15 K, x1 = 0.17 | 1197.1 ± 1.1 | 4.051 ± 0.25
323.15 K, x1 = 0.211 | 1216.3 ± 1.1 | 5.616 ± 0.34
323.15 K, x1 = 0.25 | 1230.5 ± 1.2 | 7.331 ± 0.45
323.15 K, x1 = 0.291 | 1242.4 ± 1.3 | 9.521 ± 0.58
323.15 K, x1 = 0.332 | 1252 ± 1.5 | 12.17 ± 0.74
323.15 K, x1 = 0.377 | 1260.6 ± 1.7 | 15.95 ± 0.98
328.15 K, x1 = 0.03 | 1052.8 ± 1 | 0.822 ± 0.05
328.15 K, x1 = 0.06 | 1099.9 ± 1 | 1.185 ± 0.072
328.15 K, x1 = 0.09 | 1134.7 ± 1 | 1.623 ± 0.098
328.15 K, x1 = 0.13 | 1168.8 ± 1.1 | 2.359 ± 0.14
328.15 K, x1 = 0.17 | 1193.5 ± 1.1 | 3.564 ± 0.22
328.15 K, x1 = 0.211 | 1212.7 ± 1.1 | 4.914 ± 0.3
328.15 K, x1 = 0.25 | 1227 ± 1.2 | 6.394 ± 0.39
328.15 K, x1 = 0.291 | 1239 ± 1.3 | 8.281 ± 0.51
328.15 K, x1 = 0.332 | 1248.6 ± 1.5 | 10.52 ± 0.64
328.15 K, x1 = 0.377 | 1257.3 ± 1.7 | 13.65 ± 0.84
333.15 K, x1 = 0.03 | 1049.9 ± 1 | 0.758 ± 0.046
333.15 K, x1 = 0.06 | 1096.5 ± 1 | 1.081 ± 0.065
333.15 K, x1 = 0.09 | 1131.1 ± 1 | 1.474 ± 0.089
333.15 K, x1 = 0.13 | 1165.2 ± 1.1 | 2.113 ± 0.13
333.15 K, x1 = 0.17 | 1189.9 ± 1.1 | 3.178 ± 0.19
333.15 K, x1 = 0.211 | 1209.1 ± 1.1 | 4.327 ± 0.26
333.15 K, x1 = 0.25 | 1223.4 ± 1.2 | 5.626 ± 0.34
333.15 K, x1 = 0.291 | 1235.5 ± 1.3 | 7.256 ± 0.44
333.15 K, x1 = 0.332 | 1245.4 ± 1.5 | 9.187 ± 0.56
333.15 K, x1 = 0.377 | 1253.9 ± 1.7 | 11.84 ± 0.73
338.15 K, x1 = 0.03 | 1046.6 ± 1 | 0.704 ± 0.043
338.15 K, x1 = 0.06 | 1092.8 ± 1 | 1.002 ± 0.061
338.15 K, x1 = 0.09 | 1127.5 ± 1 | 1.353 ± 0.082
338.15 K, x1 = 0.13 | 1161.5 ± 1.1 | 1.912 ± 0.12
338.15 K, x1 = 0.17 | 1186.2 ± 1.1 | 2.852 ± 0.17
338.15 K, x1 = 0.211 | 1205.5 ± 1.1 | 3.835 ± 0.23
338.15 K, x1 = 0.25 | 1219.9 ± 1.2 | 4.96 ± 0.3
338.15 K, x1 = 0.291 | 1232 ± 1.3 | 6.395 ± 0.39
338.15 K, x1 = 0.332 | 1241.8 ± 1.5 | 8.064 ± 0.49
338.15 K, x1 = 0.377 | 1250.6 ± 1.6 | 10.31 ± 0.63
343.15 K, x1 = 0.03 | 1043.2 ± 1 | 0.66 ± 0.04
343.15 K, x1 = 0.06 | 1089.5 ± 1 | 0.92 ± 0.056
343.15 K, x1 = 0.09 | 1123.9 ± 1 | 1.235 ± 0.075
343.15 K, x1 = 0.13 | 1157.8 ± 1.1 | 1.741 ± 0.11
343.15 K, x1 = 0.17 | 1182.6 ± 1.1 | 2.367 ± 0.14
343.15 K, x1 = 0.211 | 1201.9 ± 1.1 | 3.463 ± 0.21
343.15 K, x1 = 0.25 | 1216.3 ± 1.2 | 4.428 ± 0.27
343.15 K, x1 = 0.291 | 1228.5 ± 1.3 | 5.687 ± 0.35
343.15 K, x1 = 0.332 | 1238.3 ± 1.4 | 7.153 ± 0.44
343.15 K, x1 = 0.377 | 1247.2 ± 1.6 | 9.118 ± 0.56
348.15 K, x1 = 0.03 | 1039.8 ± 1 | 0.618 ± 0.037
348.15 K, x1 = 0.06 | 1086 ± 1 | 0.862 ± 0.052
348.15 K, x1 = 0.09 | 1120.1 ± 1 | 1.139 ± 0.069
348.15 K, x1 = 0.13 | 1154.1 ± 1.1 | 1.591 ± 0.096
348.15 K, x1 = 0.17 | 1178.9 ± 1.1 | 2.149 ± 0.13
348.15 K, x1 = 0.211 | 1198.3 ± 1.1 | 3.138 ± 0.19
348.15 K, x1 = 0.25 | 1212.8 ± 1.2 | 3.971 ± 0.24
348.15 K, x1 = 0.291 | 1225 ± 1.3 | 5.06 ± 0.31
348.15 K, x1 = 0.332 | 1234.9 ± 1.4 | 6.384 ± 0.39
348.15 K, x1 = 0.377 | 1243.8 ± 1.6 | 8.095 ± 0.5
